Test results taken from PubChem BioAssay AID1963856 (Molecular Pharmacology Branch, DTP, NCI, 2024).

Tested on: LG0567-F671-PDC KRAS tumor spheroid viability
Test: Anticancer human tumor LG0567-F671-PDC patient-derived lung adenocarcinoma cell line growth inhibition [KRAS2]
Settings: spheroids with HUVEC and MSC; for IC50: curve of first compound; for viability, T/C: stronger effect = lower value
How it was run: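 KRAS-mutant tumor cells were grown as spheroids with HUVEC endothelial cells and human MSCs as stroma. Targeted agents were tested alone and with KRAS pathway inhibitors. Doses started at or near clinical Cmax, or 10 microM, descending half-log.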

[1] = second compound 0.1 µM, first compound 0.0316 µM
[2] = second compound 0.1 µM, first compound 0.1 µM
[3] = second compound 0.1 µM, first compound 0.316 µM
[4] = second compound 0.1 µM, first compound 1 µM
[5] = second compound 0.1 µM, first compound 3.16 µM
[6] = second compound 0.1 µM, first compound 10 µM
[7] = second compound 0.316 µM, first compound 0.0316 µM
[8] = second compound 0.316 µM, first compound 0.1 µM
[9] = second compound 0.316 µM, first compound 0.316 µM
[10] = second compound 0.316 µM, first compound 1 µM
[11] = second compound 0.316 µM, first compound 3.16 µM
[12] = second compound 0.316 µM, first compound 10 µM
[13] = second compound 1 µM, first compound 0.0316 µM
[14] = second compound 1 µM, first compound 0.1 µM
[15] = second compound 1 µM, first compound 0.316 µM
[16] = second compound 1 µM, first compound 1 µM
[17] = second compound 1 µM, first compound 3.16 µM
[18] = second compound 1 µM, first compound 10 µM
[19] = second compound 3.16 µM, first compound 0.0316 µM
[20] = second compound 3.16 µM, first compound 0.1 µM
[21] = second compound 3.16 µM, first compound 0.316 µM
[22] = second compound 3.16 µM, first compound 1 µM
[23] = second compound 3.16 µM, first compound 3.16 µM
[24] = second compound 3.16 µM, first compound 10 µM
[25] = second compound 10 µM, first compound 0.0316 µM
[26] = second compound 10 µM, first compound 0.1 µM
[27] = second compound 10 µM, first compound 0.316 µM
[28] = second compound 10 µM, first compound 1 µM
[29] = second compound 10 µM, first compound 3.16 µM
[30] = second compound 10 µM, first compound 10 µM
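Also: drug exposure lasted seven days after spheroids formed for three days.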
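For viability, T/C in this document: 100% = DMSO vehicle control viability.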

| Compound | IC50 (second compound 0.1 µM) | IC50 (second compound 0.316 µM) | IC50 (second compound 1 µM) | IC50 (second compound 3.16 µM) | viability, T/C [1] | viability, T/C [2] | viability, T/C [3] | viability, T/C [4] | viability, T/C [5] | viability, T/C [6] | viability, T/C [7] | viability, T/C [8] | viability, T/C [9] | viability, T/C [10] | viability, T/C [11] | viability, T/C [12] | viability, T/C [13] | viability, T/C [14] | viability, T/C [15] | viability, T/C [16] | further results |
| --- | --- | --- | --- | --- | --- | --- | --- | --- | --- | --- | --- | --- | --- | --- | --- | --- | --- | --- | --- | --- | --- |
| CCNC(=O)CC1N=C(c2ccc(Cl)cc2)c2cc(OC)ccc2-n2c(C)nnc21 (stereo not given) + C=CC(=O)N1CCN(c2nc(=O)n(-c3c(C)ccnc3C(C)C)c3nc(-c4c(O)cccc4F)c(F)cc23)C(C)C1 | < 31.6 nM | < 31.6 nM | < 31.6 nM | < 31.6 nM | 35% | 33% | 24.3% | 18.5% | 15.2% | 12.9% | 28.9% | 34.7% | 25.1% | 18.7% | 15.3% | 13.2% | 32.7% | 31.1% | 22% | 16% | IC50 (second compound 10 µM): < 31.6 nM; viability, T/C [17]: 15.8%; viability, T/C [18]: 12.4%; viability, T/C [19]: 25.9%; viability, T/C [20]: 30.1%; viability, T/C [21]: 20.9%; viability, T/C [22]: 16.3%; viability, T/C [23]: 12.8%; viability, T/C [24]: 10.2%; viability, T/C [25]: 24.3%; viability, T/C [26]: 26.2%; viability, T/C [27]: 17%; viability, T/C [28]: 10.3%; viability, T/C [29]: 9.13%; viability, T/C [30]: 9.1% |
| CC1(C)CCC(CN2CCN(c3ccc(C(=O)NS(=O)(=O)c4ccc(NCC5CCOCC5)c([N+](=O)[O-])c4)c(Oc4cnc5[nH]ccc5c4)c3)CC2)=C(c2ccc(Cl)cc2)C1 + COc1cc2nc(C)nc(NC(C)c3cc(N)cc(C(F)(F)F)c3)c2cc1OC1CCOC1 | 1510 nM | 1360 nM | 1360 nM | 1220 nM | 73.5% | 67.3% | 59% | 68.8% | 18.8% | 11.7% | 67.5% | 66.5% | 61.2% | 59.6% | 25% | 7.5% | 69% | 73.3% | 72.6% | 58.7% | IC50 (second compound 10 µM): 640 nM; viability, T/C [17]: 24.1%; viability, T/C [18]: 3.67%; viability, T/C [19]: 70.2%; viability, T/C [20]: 70.7%; viability, T/C [21]: 62.8%; viability, T/C [22]: 57.8%; viability, T/C [23]: 15.6%; viability, T/C [24]: 5.87%; viability, T/C [25]: 81.3%; viability, T/C [26]: 76.5%; viability, T/C [27]: 63%; viability, T/C [28]: 42.7%; viability, T/C [29]: 14.1%; viability, T/C [30]: 1.67% |
| CC1(C)CCC(CN2CCN(c3ccc(C(=O)NS(=O)(=O)c4ccc(NCC5CCOCC5)c([N+](=O)[O-])c4)c(Oc4cnc5[nH]ccc5c4)c3)CC2)=C(c2ccc(Cl)cc2)C1 + C=CC(=O)N1CCN(c2nc(OCC3CCCN3C)nc3c2CCN(c2cccc4cccc(C)c24)C3)CC1CC#N | < 31.6 nM | < 31.6 nM | < 31.6 nM | < 31.6 nM | 30.2% | 36.3% | 29.7% | 28.7% | 10.7% | 5.62% | 34% | 32.6% | 32% | 27.7% | 6.23% | 2.16% | 34.2% | 33.5% | 33.4% | 31.9% | IC50 (second compound 0.0316 µM): < 31.6 nM; viability, T/C (second compound 0.0316 µM, first compound 0.0316 µM): 31.1%; viability, T/C (second compound 0.0316 µM, first compound 0.1 µM): 37.4%; viability, T/C (second compound 0.0316 µM, first compound 0.316 µM): 35%; viability, T/C (second compound 0.0316 µM, first compound 1 µM): 39.5%; viability, T/C (second compound 0.0316 µM, first compound 3.16 µM): 12.7%; viability, T/C (second compound 0.0316 µM, first compound 10 µM): 5.63%; viability, T/C [17]: 2.97%; viability, T/C [18]: 0.47%; viability, T/C [19]: 21.8%; viability, T/C [20]: 16.1%; viability, T/C [21]: 8.41%; viability, T/C [22]: 0.74%; viability, T/C [23]: 0.13%; viability, T/C [24]: 0.89% |
| COc1cc(Nc2ncc3c(n2)-c2ccc(Cl)cc2C(c2c(F)cccc2OC)=NC3)ccc1C(=O)O + COc1cc2nc(C)nc(NC(C)c3cc(N)cc(C(F)(F)F)c3)c2cc1OC1CCOC1 | 2450 nM | < 31.6 nM | 169 nM | < 31.6 nM | 64.3% | 59.9% | 60.9% | 55.1% | 48.9% | 36% | 46.6% | 50.2% | 43.3% | 47.1% | 36% | 28.2% | 48.3% | 53.7% | 49.5% | 44.5% | IC50 (second compound 10 µM): < 31.6 nM; viability, T/C [17]: 37.9%; viability, T/C [18]: 28.8%; viability, T/C [19]: 40%; viability, T/C [20]: 44.4%; viability, T/C [21]: 46.1%; viability, T/C [22]: 36.9%; viability, T/C [23]: 32.7%; viability, T/C [24]: 23.6%; viability, T/C [25]: 40.2%; viability, T/C [26]: 37.8%; viability, T/C [27]: 37.7%; viability, T/C [28]: 33.1%; viability, T/C [29]: 27.6%; viability, T/C [30]: 18.9% |
